According to patent US20060009433A1, “Neuroprotective spirostenol pharmaceutical compositions” (priority 2003, published 2006):
“Also recorded” adds a separate entry of the source.

Experiments:
rat PC12 neuronal cells = assay: MTT assay, Aβ1-42-induced cytotoxicity in PC12 cells (Example I); details: MTT
human NT2 cells = assay: Trypan blue dye exclusion assay, NT2 cells; assay type: cell-based; details: 25 μM steroid, 72 hours
Experimental: (§1) Rat PC12 cells were cultured as previously described. Yao et al., Brain Res. 889, 181-190 (2001). Human NT2 precursor (Ntera2/D1 teratocarcinoma) cells were obtained from Stratagene (La Jolla, Calif.) and cultured following the instructions of the supplier. Differentiated human NT2 neurons (NT2N) were obtained after treatment of the NT2 precursor cells with retinoic acid. Andrews, Dev. […] Aβ was dissolved in media and used either in the aggregated (left overnight at 4° C.) or soluble (containing oligomers such as dimers and tetramers) forms examined by electrophoresis as previously described. Yao et al., Brain Res. (2001). […] Id. Cell viability was measured using the trypan blue exclusion method as previously described. Id. In brief, for these studies, cells were treated for 72 hours with steroids in the presence or absence of increasing concentrations of Aβ. At the end of the incubation, the cells were washed three times with PBS and incubated for 15 minutes with 0.1% trypan blue stain solution at room temperature. After washing three times with PBS, 0.1 N NaOH was added to the cells and trypan blue staining was quantified using the Victor quantitative detection spectrophotometer (EGG-Wallac, Gaithersburg, Md.) at 450 nm. Cell protein levels were determined in the same samples by the method of Bradford (Bradford, Anal. Biochem., 72, 248-254 (1976)), where coomassie blue staining is detected at 590 nm.
(§2) The results obtained from using MTT assay were further confirmed with the trypan blue dye exclusion assay. […] Levels of viability were measured using the trypan blue assay as described under Materials and Methods. Results are expressed as fold trypan blue stained cells per total cell protein over control untreated cells. Results shown are means±SD (n=6-12).

rat PC12 cells = assay: Trypan blue dye exclusion assay, PC12 cells (Example I); assay type: cell-based; details: 100 μM steroid, 72 hours
Experimental: as §1, §2

NT2 cells [1] = assay: NT2 cell differentiation, phase-contrast morphology; assay type: cell-based, human; details: 25 μM; 3, 6 and 12 days (comparators 6 days)
Aβ = molecular target: T1, Aβ (Homo sapiens, UniProt P05067); assay: CPBBA displacement of radiolabeled 22R-hydroxycholesterol from Aβ (Example II); assay type: binding; details: 100 μM unlabeled compound; 50 μM Aβ
T1 construct: Aβ1-42 peptide was purchased from American Peptide Co; purchased American Peptide Co. (Sunnyvale, Calif.)
Experimental: At the end of the incubation time, samples were separated by 1.5% agarose (Type I-B) gel electrophoresis under native conditions and transferred to nitrocellulose membrane (Schleicher&Schuell, Keene, N.H.) in 10×SSC buffer. The membrane was exposed to tritium-sensitive screen and analyzed by phosphoimaging using the Cyclone Storage phosphor system (Packard BioScience). Image-densitometric analysis was performed using the OptiQuant software (Packard BioScience). […] Low molecular weight unincorporated 22R-hydroxycholesterol and derivatives are separated and eliminated during electrophoresis.

[2] = tested on: PC12 cells (rat pheochromocytoma neurons); assay: MTT cytotoxicity assay, Aβ-induced neurotoxicity in PC12 cells (Example II); assay type: cell-based; details: for neuroprotection against Aβ-induced neurotoxicity (structure/activity discussion): PC12 cells; for neuroprotective effect compared with SP222 / neuroprotection against 0.1 μM Aβ-induced neurotoxicity / neuroprotection against 10 μM Aβ-induced neurotoxicity / neuroprotection against 1 μM Aβ-induced neurotoxicity: MTT; for neuroprotective effect compared with SP222: 0.1 μM Aβ; for neuroprotection against 0.1 μM Aβ-induced neurotoxicity / neuroprotection against 10 μM Aβ-induced neurotoxicity / neuroprotection against 1 μM Aβ-induced neurotoxicity: compounds at 30 and 50 μM, 72 hours
Experimental: (§3) PC12 cells (rat pheochromocytoma neurons) from ATCC (Manassas, Va.) were cultured at 37° C. and 5% CO2 in RPMI 1640 medium devoid of glutamine and supplemented with 10% fetal bovine serum and 5% horse serum. Yao Z, Drieu K and Papadopoulos V., The Gingko biloba extract EGb 761 rescues PC12 neuronal cells from β-amyloid-induced cell death by inhibiting the formation of (3-amyloid-derived diffusible neurotoxic ligands, Brain Res, 889, 181-190 (2001). Cells were seeded in 96-well plates (8×10^4 cells/well). After an overnight period of incubation, increasing concentrations of aggregated Aβ (0.1, 1 and 10 μM) were added to the cells in the presence or absence of the indicated concentrations of the SP compounds to be tested. After 72-hours incubation time various parameters, markers of cell viability, were determined. Mouse MA-10 tumor Leydig cells were maintained at 37° C. in DMEM/Ham's F12 (Biofluids, Rockville, Md.) medium supplemented with 5% heat-inactivated fetal calf serum and 2.5% horse serum in 5% CO2. Cells were plated on 96-well plates at the density of 2.5×10^4 cells/well for overnight. The cells were stimulated with the indicated concentrations of the various SP compounds in 0.2 ml/well serum-free medium for 2 hours. The culture medium was collected and tested for progesterone production by radioimmunoassay.
The cellular toxicity of Aβ was assessed using the 3-(4,5-dimethylthiazol-2-yl)-2,5-diphenyl tetrazolium bromide (MTT) assay (Trevigen, Gaithersburg, Md.). Briefly, 10 μl of the MTT solution were added to the cells cultured in 100 μl medium. After an incubation period of 4 hours, 100 μl of detergent were added and cells were incubated overnight at 37° C. Formazan blue formation was quantified at 600 nm and 690 nm using the Victor quantitative detection spectrophotometer (EGG-Wallac, Gaithersburg, Md.) and the results expressed as (DO600-DO690). […] Liu Y and Schubert D, Steroid hormones block amyloid fibril-induced 3-(4,5-dimethylthiazol-2-yl)-2,5-diphenyltetrazolium bromide (MTT) formazan exocytosis: relationship to neurotoxicity, J. Neurochem., 19, 1639-1662 (1998). For that reason, additional cytotoxicity and cell viability assays were used.
Yao et al., J. Neurochem., 83, 1110-1119 (2002); and Yao et al., The Gingko biloba extract EGb 761 rescues PC12 neuronal cells from β-amyloid-induced cell death by inhibiting the formation of β-amyloid-derived diffusible neurotoxic ligands, Brain Res., 889, 181-190 (2001). To stay close to the concentrations of Aβ present in AD brain, 0.1-10 μM concentrations of Aβ were used. The compounds tested for their neuroprotective properties were examined at 30 and 50 μM concentrations (FIGS. 9-15).

PC12 cells [3] = assay: Cellular ATP levels (ATPLite-M) in Aβ-treated PC12 cells; assay type: cell-based, rat; details: 0.1 and 1.0 μM Aβ
Experimental: as §3
Cellular ATP concentrations were measured using the ATPLite-M™ luminescence assay (Packard BioSciences Co.). For this assay, cells were cultured on black 96-well ViewPlate™ and the ATP concentrations were measured on a TopCount NXT™ counter (Packard BioSciences Co.) following the recommendations of the manufacturer.

PC12 cells [4] = assay: Membrane potential (CytoLite luminescence) in Aβ-treated PC12 cells; assay type: cell-based, rat; details: 10 μM Aβ
Experimental: as §3
Cells viability was also assessed using the luminescence-based kit CytoLite™ (Packard BioScience Co.) according to the recommendations of the manufacturer. Briefly, cells were cultured and treated in 96-well plates and after 72-hours incubation time, 25 μl of Activator solution was added to the cells followed by 150 μl of Amplifier solution. Luminescence was measured on a TopCount NXT™ counter (Packard BioSciences Co.) following a 5 minute precount delay.

NT2 cells [5] = assay: BrdU assay, NT2 cell proliferation; assay type: cell-based, human; details: 50 μM

T1 sequence (P05067 672-713): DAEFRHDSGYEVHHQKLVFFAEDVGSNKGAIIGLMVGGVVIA

## CC(=O)[C@@]1(O)CC[C@H]2[C@@H]3CC=C4C[C@@H](O)CC[C@]4(C)[C@H]3CC[C@@]21C [17α-hydroxypregnenolone, 5-pregnen-3β, 17α-diol-20-one]
Rat PC12 neuronal cells; absence of Aβ
  PC12 cell viability, steroid alone: toxic to the cells

## C[C@]12CC[C@H](O)CC1=CC[C@@H]1[C@@H]2CC[C@]2(C)C(=O)CC[C@@H]12 [DHEA, 5-androsten-3β-ol-17-one]
Human NT2 cells
  rescue from Aβ1-42-induced cell death: had no effect
  rescue from Aβ25-35-induced cell death: Neither 22R-hydroxycholesterol nor DHEA could rescue
Rat PC12 cells
  rescue from Aβ1-42-induced cell death: protected
  rescue from Aβ25-35-induced cell death: Neither 22R-hydroxycholesterol nor DHEA could rescue
Rat PC12 neuronal cells; 100 μM steroid
  PC12 cell viability, steroid alone at 100 μM: positive effect on cell viability
NT2 cells [1]
  effect on NT2 cell morphology (differentiation): could not be replicated

## CC1CCC2(OC1)OC1CC3C4CC=C5CC(O)C(O)CC5(C)C4CCC3(C)C1C2C [SP227, (22R,25ζ)-(20α)-spirost-5-en-(2α,3ζ)-diol]
Aβ
  displacement of radiolabeled 22R-hydroxycholesterol binding to Aβ: 38%

## C[C@H]1CC[C@@]2(OC1)O[C@H]1C[C@H]3[C@@H]4CC=C5CC(O)CC[C@]5(C)[C@H]4CC[C@]3(C)[C@H]1[C@@H]2C (stereo partly drawn) [SP231, (22R,25S)-(20ζ)-spirost-5-en-3ζ-ol]
[2]
  neuroprotection against Aβ-induced neurotoxicity (structure/activity discussion): only SP235 is protective

## CC1CCC2(OC1)OC1CC3C4CC=C5CC(OC(=O)c6ccccc6)CCC5(C)C4CCC3(C)C1C2C [SP232, (22R,25ζ)-(20α)-spirost-5-en-3β-yl benzoate]
[2]
  neuroprotection against Aβ-induced neurotoxicity (structure/activity discussion): not effective in neuroprotection

## C[C@H]1CC[C@@]2(OC1)O[C@H]1C[C@H]3[C@@H]4CC=C5C[C@@H](O)CC[C@]5(C)[C@H]4CC[C@]3(C)[C@H]1[C@@H]2C [SP235, (22R,25S)-(20α)-spirost-5-en-3β-ol]
[2]
  neuroprotective effect compared with SP222: significantly more robust effect than SP222
  neuroprotection against 0.1 μM Aβ-induced neurotoxicity: displayed neuroprotective activity
  neuroprotection against 10 μM Aβ-induced neurotoxicity: exhibited neuroprotective activity
  neuroprotection against Aβ-induced neurotoxicity (structure/activity discussion): limited neuroprotection acting only against 0.1 μM Aβ
PC12 cells [3]
  reversal of Aβ-induced decrease in ATP levels: did not block

## CC(=O)OC1CC[C@@]2(C)C(=CC[C@H]3[C@@H]4CC(OC(C)=O)[C@H]([C@H](C)C(CCC(C)CN(C(C)=O)C(C)=O)OC(C)=O)[C@@]4(C)CC[C@@H]32)C1 (stereo partly shown) [SP237, 26-diacetylamino-(22ζ)-acetoxy-(16ζ)-acetoxy-cholest-5-en-yl acetate]
[2]
  neuroprotection against 0.1 μM Aβ-induced neurotoxicity: displayed neuroprotective activity
Aβ
  displacement of radiolabeled 22R-hydroxycholesterol binding to Aβ: 46%

## CCC(=O)O[C@H]1CC[C@@]2(C)C(=CC[C@H]3[C@@H]4C[C@@H]5O[C@@]6(CC[C@H](C)CN6C(C)=O)[C@@H](C)[C@@H]5[C@@]4(C)CC[C@@H]32)C1 [SP238, (20α)-25S-methyl-N-acetyl-(22S,26)-azacyclofurost-5-en-3β-yl propanoate]
[2]
  neuroprotective effect compared with SP222: significantly more robust effect than SP222
  neuroprotection against 0.1 μM Aβ-induced neurotoxicity: displayed neuroprotective activity
  neuroprotection against 1 μM Aβ-induced neurotoxicity: maintained their neuroprotective properties
  neuroprotection against 10 μM Aβ-induced neurotoxicity: kept this property; also recorded: exhibited neuroprotective activity
  neuroprotection against Aβ-induced neurotoxicity (structure/activity discussion): able to protect PC12 cells
PC12 cells [4]
  neuroprotective effect against 10 μM Aβ, membrane potential luminescence: replicated by the raise of the signal
PC12 cells [3]
  reversal of Aβ-induced decrease in ATP levels: did not block; also recorded: no effect on maintaining ATP levels
Aβ
  displacement of radiolabeled 22R-hydroxycholesterol binding to Aβ: 44%

## CC(C)CCC[C@@H](C)[C@H]1CC[C@H]2[C@@H]3CC=C4C[C@@H](O)CC[C@]4(C)[C@H]3CC[C@]12C [cholesterol, 5-cholesten-3β-ol]
Rat PC12 neuronal cells
  effect on toxicity of low concentrations of Aβ: accentuated the toxic effect of low concentrations of Aβ
Rat PC12 neuronal cells; Aβ1-42
  neuroprotective effect against Aβ-induced neurotoxicity: could not be replicated
NT2 cells [1]
  effect on NT2 cell morphology (differentiation): could not be replicated

## CC(=O)[C@H]1CC[C@H]2[C@@H]3CCC4=CC(=O)CC[C@]4(C)[C@H]3CC[C@]12C [progesterone]
NT2 cells [5]
  NT2 cell proliferation at 50 μM: significantly inhibited
NT2 cells [1]
  effect on NT2 cell morphology (differentiation): could not be replicated

## (20α)-25ζ-methyl-N-paratoluenesulfonyl-(22R,26)-azacyclofurost-5-en-3ζ-yl paratoluenesulfonate [SP229]
[2]
  neuroprotection against 0.1 μM Aβ-induced neurotoxicity: displayed neuroprotective activity

## (20ζ)-25ζ-methyl-N-acetyl-(22R,26)-azacyclofurost-5-en-3ζ-ol [SP226]
[2]
  neuroprotection against Aβ-induced neurotoxicity (structure/activity discussion): did not offer neuroprotection
Aβ
  displacement of radiolabeled 22R-hydroxycholesterol binding to Aβ: 65%

## (20ζ)-26-acetylamino-(22ζ)-ethoxyfurost-5-en-3ζ-yl acetate [SP228]
[2]
  neuroprotection against 0.1 μM Aβ-induced neurotoxicity: displayed neuroprotective activity

## (22R,25S)-(20α)-spirost-5-en-3β-yl succinate [SP236]
[2]
  neuroprotective effect compared with SP222: significantly more robust effect than SP222
  neuroprotection against 0.1 μM Aβ-induced neurotoxicity: displayed neuroprotective activity
  neuroprotection against 1 μM Aβ-induced neurotoxicity: maintained their neuroprotective properties
  neuroprotection against 10 μM Aβ-induced neurotoxicity: exhibited neuroprotective activity
  neuroprotection against Aβ-induced neurotoxicity (structure/activity discussion): active against higher Aβ concentrations
PC12 cells [3]
  reversal of Aβ-induced decrease in ATP levels: able to reverse; also recorded: blocked, although in part
